The source made the active and inactive calls.
Tests used:
Format in all cases: functional, cell-based
MCF7 = assay: Anticancer activity against human MCF7 cells at 100 uM
SF-268 = assay: Anticancer activity against human SF268 cells at 100 uM
NCI-H460 = assay: Anticancer activity against human NCI-H460 cells at 100 uM

Measured: Activity

C#CCN/C(=N/S(=O)(=O)c1cc(C)c(Cl)cc1SCC(N)=O)NN
inactive: all assays above

C=CCN/C(=N/S(=O)(=O)c1cc(C)c(Cl)cc1SC)N/N=C/c1ccc([N+](=O)[O-])o1
inactive: all assays above

C#CCN/C(=N/S(=O)(=O)c1cc(C(=O)Nc2ccccc2)c(Cl)cc1S)NN
inactive: all assays above

C#CCN/C(=N/S(=O)(=O)c1cc(C)c(Cl)cc1SCC(=O)c1ccccc1)NN
inactive: all assays above

C#CCN/C(=N/S(=O)(=O)c1cc(C)c(Cl)cc1SCC#N)NN
inactive: all assays above

C#CCN/C(=N/S(=O)(=O)c1cc(C)c(Cl)cc1S)NN
inactive: all assays above

C=CCN/C(=N/S(=O)(=O)c1cc(C(=O)Nc2ccc(Cl)cc2)c(Cl)cc1SC)NN
inactive: all assays above

C=CCN/C(=N/S(=O)(=O)c1cc(C(=O)Nc2ccccc2)c(Cl)cc1SCC(N)=O)NN
inactive: all assays above

— ChEMBL document CHEMBL1147876, “Synthesis of novel 3-amino-2-(4-chloro-2-mercaptobenzenesulfonyl)-guanidine derivatives as potential antitumor agents” (Eur J Med Chem, 2007)
